The results in this text go back to patent US7767200B2, “Cancer treatment using viruses, fluoropyrimidines and camptothecins” (Wellstat Biologics Corporation, priority 2005, dated 2010).

In test [1] the test system is human SW620 colon carcinoma cells. More on the design: species or system athymic mice. As to conditions: mouse, in vivo.
The subject of test [2] is human HT1080 fibrosarcoma cells. More on the design: species or system athymic mice. The conditions noted are these: mouse, in vivo.

For the molecule `O=c1[nH]cc(F)c(=O)[nH]1` [5-FU, 5-fluorouracil], the “Durable CRs, %” value in test [1] came out at 0%. Also, the “Complete Tumor Responses (CR), %” value in test [2] worked out at 0%. For `CCc1c2c(nc3ccc(OC(=O)N4CCC(N5CCCCC5)CC4)cc13)-c1cc3c(c(=O)n1C2)COC(=O)[C@]3(O)CC` [Irinotecan, 7-ethyl-10-[4-(1-piperidino)-1-piperidino]-carbonyloxycamptothecin], in test [1], the “Durable CRs, %” value turned out to be 0%.
